Among the test systems are PC-3 prostate; OVCAR-8 ovarian; HT29 colon; SR leukemia; A549 NSCLC; HOP-92 NSCLC; BT-549 breast; COLO 205 colon; SNB-19 CNS; SK-MEL-5 melanoma; HS 578T breast; SK-MEL-28 melanoma; IGROV1 ovarian; UO-31 renal; KM12 colon; ACHN renal; NCI/ADR-RES ovarian; SF-268 CNS; OVCAR-3 ovarian; T-47D breast.
Assay in all cases: growth of human tumour cells (NCI), 48 h

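Compound exposure: 48 hours, 5 concentrations, 96-well plates. TGI marks complete inhibition of growth.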 Where a SMILES comes first, the peptide text is derived from it. Bridges are numbered along the chain shown (N, C = ends). [ ]: non-standard residue; d: D form. The star is where a group is joined. Cbz = O=C(OCc1ccccc1)*; Aib = CC(C)(N)C(=O)O; OBn = c1ccc(CO*)cc1; βAla = NCCC(=O)O A value given as a limit tells only on which side of the number the result lay.

As for `CC(=O)O[C@@H]1C=C(C)[C@H](CBr)O[C@@]2(C)CC[C@H](Br)C(C)(C)[C@H]12`, the TGI in the test on PC-3 prostate, in the test with OVCAR-8 ovarian, with HT29 colon, in the test with SR leukemia, in the test on A549 NSCLC and with HOP-92 NSCLC was more than 100 µM throughout. For the same compound, the TGI with BT-549 breast, with COLO 205 colon, in the test on SNB-19 CNS, with SK-MEL-5 melanoma, in the test with HS 578T breast and in the test with SK-MEL-28 melanoma was more than 100 µM throughout. Further, the TGI with IGROV1 ovarian, in the test with UO-31 renal, with KM12 colon, in the test on ACHN renal, in the test with NCI/ADR-RES ovarian and with SF-268 CNS was more than 100 µM throughout.

With `NS(=O)(=O)c1nnc(NC(=O)c2ccccc2)s1`, the TGI in the test on OVCAR-3 ovarian, in the test on OVCAR-8 ovarian, in the test with SR leukemia, in the test on T-47D breast, in the test on A549 NSCLC and with HOP-92 NSCLC was more than 100 µM in each case. The TGI in the test with BT-549 breast, in the test on COLO 205 colon, in the test on SNB-19 CNS, in the test on SK-MEL-5 melanoma, in the test with HS 578T breast and in the test with SK-MEL-28 melanoma was more than 100 µM throughout. For the same compound, the TGI in the test on UO-31 renal, with KM12 colon, with ACHN renal, in the test with NCI/ADR-RES ovarian and in the test on SF-268 CNS was more than 100 µM throughout.

Regarding `Clc1ccc2c(NCCCCN=Cc3ccccc3)ccnc2c1`, the TGI with OVCAR-3 ovarian came out at 41.9 µM; in the test on PC-3 prostate, 25.1 µM; in the test on OVCAR-8 ovarian it was 32 µM; in the test with HT29 colon, 21.6 µM; in the test on T-47D breast, 45.7 µM; in the test with A549 NSCLC it was 31.3 µM. Further, the TGI in the test on HOP-92 NSCLC is 26.3 µM; with BT-549 breast, 32.6 µM; with COLO 205 colon, 18.1 µM; with SNB-19 CNS, 45.7 µM; in the test on SK-MEL-5 melanoma it was 26.5 µM; in the test on HS 578T breast, 36.6 µM. Further, the TGI was determined as 29 µM with SK-MEL-28 melanoma; 36.5 µM with IGROV1 ovarian; 40.3 µM in the test on UO-31 renal; 20.8 µM in the test with KM12 colon; 49 µM in the test with ACHN renal; 46.7 µM with NCI/ADR-RES ovarian. In the test with SF-268 CNS, this compound gave a TGI of 35 µM.

Consider `CC(=O)NNc1nc(C)c(C(/C=C/c2cccc([N+](=O)[O-])c2)=N/NC(=S)NN)s1`, for which the TGI in the test with OVCAR-3 ovarian, in the test on PC-3 prostate, with OVCAR-8 ovarian, in the test with HT29 colon, in the test on T-47D breast and with A549 NSCLC was more than 100 µM throughout. The TGI in the test on HOP-92 NSCLC, in the test on BT-549 breast, in the test with COLO 205 colon, with SNB-19 CNS, in the test with SK-MEL-5 melanoma and in the test with HS 578T breast was more than 100 µM in each case. Also, the TGI in the test with SK-MEL-28 melanoma, with IGROV1 ovarian, in the test with UO-31 renal, with KM12 colon, in the test with ACHN renal and in the test with NCI/ADR-RES ovarian was more than 100 µM each time. Further, the TGI in the test with SF-268 CNS is more than 100 µM.

`Cn1c(=O)c2c(nc(NCCCCl)n2CC(=O)NCCCCl)n(C)c1=O`: the TGI in the test on OVCAR-3 ovarian, in the test with PC-3 prostate, with OVCAR-8 ovarian, in the test on HT29 colon, in the test with T-47D breast and in the test with A549 NSCLC was more than 100 µM throughout. For the same compound, the TGI in the test with HOP-92 NSCLC, with BT-549 breast, in the test on COLO 205 colon, in the test on SNB-19 CNS, with SK-MEL-5 melanoma and with HS 578T breast was more than 100 µM throughout. The TGI in the test on SK-MEL-28 melanoma, in the test on IGROV1 ovarian, with UO-31 renal, with KM12 colon, in the test with ACHN renal and in the test on NCI/ADR-RES ovarian was more than 100 µM in each case. For the same compound, the TGI in the test with SF-268 CNS is more than 100 µM.

`CCCCCCCCCCCCCCCCCc1cccc(OCOCCOC)c1CO`: the TGI in the test on OVCAR-3 ovarian, in the test on PC-3 prostate, with OVCAR-8 ovarian, with HT29 colon, in the test on SR leukemia and in the test on A549 NSCLC was more than 100 µM throughout. Besides, the TGI in the test with HOP-92 NSCLC, with BT-549 breast, in the test with COLO 205 colon, with SNB-19 CNS, in the test on SK-MEL-5 melanoma and in the test on HS 578T breast was more than 100 µM each time. For the same compound, the TGI with SK-MEL-28 melanoma, with IGROV1 ovarian, in the test on UO-31 renal, with KM12 colon, in the test on ACHN renal and in the test on NCI/ADR-RES ovarian was more than 100 µM each time. For the same compound, in the test on SF-268 CNS, the TGI is more than 100 µM.

For the compound `CCOc1cc(NC(C)=O)ccc1C(=O)NN1C(=O)C(Oc2ccccc2)C1c1ccc(O)c(OC)c1` (configuration not stated), the TGI with OVCAR-3 ovarian was more than 100 µM; with PC-3 prostate, more than 100 µM; in the test with OVCAR-8 ovarian, 96.8 µM; with HT29 colon it was more than 100 µM; in the test on SR leukemia, more than 100 µM; in the test on T-47D breast, 77.9 µM. For the same compound, the TGI in the test with A549 NSCLC is more than 100 µM; with HOP-92 NSCLC, more than 100 µM; with BT-549 breast it was more than 100 µM; with COLO 205 colon, 83.9 µM; with SNB-19 CNS, more than 100 µM; with SK-MEL-5 melanoma, 49.5 µM. For the same compound, the TGI with SK-MEL-28 melanoma, with IGROV1 ovarian, in the test with UO-31 renal, in the test on KM12 colon, with ACHN renal and in the test on NCI/ADR-RES ovarian was more than 100 µM each time.

As for `Cc1cc(O)c(/C=N/C(=S)NCCc2ccccc2)c(=O)o1`, the TGI with OVCAR-3 ovarian, in the test on PC-3 prostate, in the test with OVCAR-8 ovarian, in the test on HT29 colon, in the test on T-47D breast and in the test on A549 NSCLC was more than 100 µM throughout. Also, the TGI with HOP-92 NSCLC, in the test on BT-549 breast, in the test with COLO 205 colon, in the test on SNB-19 CNS, in the test on SK-MEL-5 melanoma and with SK-MEL-28 melanoma was more than 100 µM each time. The TGI with IGROV1 ovarian, with UO-31 renal, with KM12 colon, with ACHN renal and with NCI/ADR-RES ovarian was more than 100 µM in each case.

Consider `CC(=O)OCC1OC(N2C(c3ccccc3)=CC(c3ccccc3)C(C#N)=C2S)C(OC(C)=O)C(OC(C)=O)C1OC(C)=O` (configuration not stated), for which the TGI in the test with OVCAR-3 ovarian is more than 63.1 µM; in the test with OVCAR-8 ovarian, 24.2 µM; in the test on HT29 colon, more than 82.5 µM; with SR leukemia, more than 100 µM; with T-47D breast it was more than 24.3 µM; in the test on A549 NSCLC, more than 46.4 µM. Besides, the TGI with HOP-92 NSCLC was 16.6 µM; in the test with BT-549 breast, 20.6 µM; in the test with SNB-19 CNS, 26.5 µM; in the test with SK-MEL-5 melanoma it was 9.98 µM; in the test on HS 578T breast, 29.8 µM; in the test on SK-MEL-28 melanoma, more than 100 µM. Further, the TGI was more than 52.9 µM with IGROV1 ovarian; 51 µM in the test on UO-31 renal; more than 44.9 µM in the test with KM12 colon; 27 µM in the test on ACHN renal; more than 100 µM with NCI/ADR-RES ovarian; 19.6 µM in the test on SF-268 CNS.

For the compound `O=C(CC(=O)N(C(=O)c1ccccc1)c1ccc(Cl)cc1)N/N=C\c1cc(N=Nc2ccccc2Cl)ccc1O`, the TGI is more than 100 µM in the test with OVCAR-3 ovarian; more than 100 µM in the test with PC-3 prostate; more than 100 µM with OVCAR-8 ovarian; more than 100 µM in the test on HT29 colon; 35.8 µM in the test with SR leukemia; more than 100 µM with T-47D breast. Also, the TGI in the test with A549 NSCLC is more than 100 µM; with HOP-92 NSCLC, 59.6 µM; with BT-549 breast, more than 100 µM; in the test on COLO 205 colon, more than 100 µM; in the test on SNB-19 CNS it was 94.2 µM; with HS 578T breast, 61.6 µM. The TGI in the test with SK-MEL-28 melanoma, in the test with IGROV1 ovarian, in the test on UO-31 renal, in the test with KM12 colon, with ACHN renal and with SF-268 CNS was more than 100 µM in each case.

Consider `C/C(=N\NC(=S)N1CC2CCC(CC2)C1)c1ccncn1`, for which the TGI with PC-3 prostate stood at 15 µM; with HT29 colon, 5.5 µM; in the test with T-47D breast, 3.48 µM; in the test on A549 NSCLC, 1.94 µM; in the test on HOP-92 NSCLC, 3.9 µM; in the test on BT-549 breast, 3.54 µM. For the same compound, the TGI with COLO 205 colon was less than 0.0333 µM; in the test with SNB-19 CNS it was 15 µM; in the test with SK-MEL-5 melanoma it was 0.833 µM; in the test with HS 578T breast it was more than 24.4 µM; in the test on SK-MEL-28 melanoma, more than 22.6 µM; in the test on IGROV1 ovarian, 3.78 µM. The TGI in the test on UO-31 renal amounted to 0.911 µM; in the test with KM12 colon, 3.16 µM; with ACHN renal, 3.28 µM; in the test on SF-268 CNS, 3.62 µM.

Consider `CC1(C)NC(=O)C(NC(=O)C(CC(=O)OCc2ccccc2)NC(=O)OCc2ccccc2)CCCCNC(=O)CCNC1=O` (configuration not stated) (Cbz-D(OBn)K[Aib][βAla]; lactam 2-C; configuration not given here), for which the TGI with OVCAR-3 ovarian, in the test on PC-3 prostate, in the test with OVCAR-8 ovarian, in the test on HT29 colon, in the test on T-47D breast and in the test on A549 NSCLC was more than 100 µM in each case. Besides, the TGI in the test on HOP-92 NSCLC, in the test on BT-549 breast, in the test on COLO 205 colon, in the test with SNB-19 CNS, in the test on SK-MEL-5 melanoma and in the test with HS 578T breast was more than 100 µM throughout. Besides, the TGI in the test with SK-MEL-28 melanoma, in the test with IGROV1 ovarian, with UO-31 renal, with KM12 colon, with ACHN renal and in the test with NCI/ADR-RES ovarian was more than 100 µM throughout. Also, the TGI in the test with SF-268 CNS was more than 100 µM.
